According to patent US11299435B2, “Urea-based composition and method for the manufacture thereof” (Yara International ASA, priority 2017, dated 2022):

Assays:
Type in all cases: physicochemical
[1] = Stability of nBTPT in solution with added alkaline compound (HPLC nBTPT content); details: closed plastic containers
Text: Lab scale experiments with nBTPT in solution: • An aqueous solution of nBTPT was made by dissolving 3 g nBTPT powder in 1 L water. In a next step an alkaline compound could be added. • A solution of 17.5% nBTPT in PG was made by dissolving step by step 17.5 g nBTPT powder in 82.5 g PG. In a next step, an alkaline compound could be added. • The commercial liquid nBTPT formulation Agrotain® Ultra was mixed with and/or without the presence of an alkaline stabilizer
(§1) Closed plastic container at room temperature (20° C.)
(§2) 50° C. closed plastic container
(§3) HPLC analysis of nBTPT is done as described in the procedure CEN 15688-2007.
In a first experiment, a solution of 17.5% nBTPT in PG was made and in a next step an alkaline compound was added. Subsequently, the solutions were stored in closed plastic containers for 5 days at room temperature (20° C.) and subsequently 7 days at 50° C. and the decomposition of nBTPT was followed.
In a second experiment, an alkaline compound was added to Agrotain® Ultra. Subsequently, the nBTPT solutions were stored in closed plastic containers for 5 days at room temperature (20° C.) and the decomposition of nBTPT was followed.
In a third experiment, an aqueous solution of 3.0 g nBTPT in 1 L water was made and in a next step an alkaline compound was added. Subsequently, the aqueous solutions were stored in closed plastic containers for 5 days at room temperature (20° C.) and the decomposition of nBTPT was followed.

[2] = Stability of nBTPT applied on moisturized urea granules during storage (HPLC nBTPT content); details: vs no stabilizer, closed plastic containers, 70° C., 15 days (FIG. 6)
Method: For lab scale experiments for applying nBTPT on urea, nBTPT, as powder or as liquid formulations, was applied onto urea by adding 1.2 kg of urea to a lab scale drum. In a next step, the nBTPT material, with and/or without the presence of an alkaline stabilizer, was slowly added. A residence time of 10 minutes was applied and the rotating speed of the drum was consequently the same in each experiment. Larger scale experiments with amounts up to 40 kg of fertilizer material were performed in a concrete mixer.
(§4) 70° C. closed plastic container
as §3
600 ppm nBTPT powder was mixed with and/or without the presence of an alkaline stabilizer and subsequently added on urea granules, which were moisturized from 0.20% H2O to 0.60% H2O. This moisturization was done to create a higher moisture level of the urea granules to simulate moisture take up during storage in market conditions.
Subsequently, the urea granules were stored for 15 days at 70° C. in closed plastic containers and the decomposition of nBTPT was followed.

[3] = Stability of nBTPT melt-mixed in urea granules during storage (HPLC nBTPT content)
Method: For pilot scale experiments applying nBTPT in urea, nBTPT, as powder or as liquid formulations, was mixed in urea in the following way: nBTPT was added to urea melt, with and/or without the presence of an alkaline stabilizer and subsequently, this mixture was granulated in a fluidized bed granulator.
nBTPT in urea granules, with and/or without the presence of an alkaline stabilizer, were produced in the urea pilot plant in Sluiskil (Yara International ASA). This pilot plant has a batch capacity—after sieving—of about 50 kg of on-spec product. It basically consists of a stirred urea preparation vessel with an active volume of about 150 litres and a fluidized bed granulator of the UFT-type, equipped with a spraying nozzle of the spiral-type or HFT-type (EP 1701798 B1, 2005, Yara International ASA).
The samples were stored under several conditions, dependent on the type of samples:
as §1
Open to air at 20° C. with a relative humidity of 80%
For some samples, an accelerated stability test was done storing these samples at elevated temperatures:
40° C. closed plastic container
as §2, §4, §3
In the first experiment, 500 ppm nBTPT powder was added into urea melt, with and/or without the presence of an alkaline stabilizer, and in a next step this melt composition was converted into urea granules in a fluidized bed granulator. Subsequently, the granules were stored for 98 days at 40° C. in closed plastic containers and the decomposition of nBTPT was followed.
In a second experiment, the effect of other alkaline stabilizers such as CaO and CaCO3 was shown in comparison with NaOH. 500 ppm nBTPT powder was added into urea melt, containing an alkaline stabilizer, and in a next step, this melt composition was converted into urea granules in a fluidized bed granulator. Subsequently, the granules were stored for 109 days at 50° C. in closed plastic containers and the decomposition of nBTPT was followed.
On top of that, the granules were also stored for 1564 days (more than 4 years!) at room temperature (20° C.) in closed plastic containers and the decomposition of nBTPT was followed. […] With the addition of 1% CaO or CaCO3 a recovery of nBTPT higher than 40% was found after a long storage period of more than 4 years at room temperature.
In a third experiment, 500 ppm nBTPT powder was added into a urea melt, with and/or without the presence of 0.1% B as borax, and in a next step this melt composition was converted into urea granules in a fluidized bed granulator. Subsequently, the granules were stored for 57 days at 20° C./80% R.H. in open plastic containers and the decomposition of nBTPT was followed.
In a fourth experiment, 600 ppm nBTPT powder was added into a urea melt, with and/or without the presence of an alkaline stabilizer, and in a next step this melt composition was converted into urea granules in a fluidized bed granulator. Subsequently, the granules were stored for 15 days at 70° C. in closed plastic containers and the decomposition of nBTPT was followed.

CCCCNP(N)(N)=S [nBTPT, N-(n-butyl) thiophosphoric triamide]
effect on the stability of nBTPT in solution ([1]; 17.5% nBTPT in propylene glycol (PG) + 5% CaO vs none, 5 days at 20° C. then 7 days at 50° C. (FIG. 7)): negative effect | effect on the stability of nBTPT in solution ([1]; 17.5% nBTPT in propylene glycol (PG) + 5% NaOH vs none, 5 days at 20° C. then 7 days at 50° C. (FIG. 7)): negative effect | effect on the stability of nBTPT in solution ([1]; aqueous solution 3 g nBTPT/L water + 1% CaO vs none, 5 days at 20° C. (FIG. 9)): negative effect | effect on the stability of nBTPT in solution ([1]; aqueous solution 3 g nBTPT/L water + 1% Na2CO3 vs none, 5 days at 20° C. (FIG. 9)): negative effect | effect on the stability of nBTPT in solution ([1]; aqueous solution 3 g nBTPT/L water + 1% NaHCO3 vs none, 5 days at 20° C. (FIG. 9)): negative effect | effect on the stability of nBTPT in solution ([1]; aqueous solution 3 g nBTPT/L water + 1% NaOH vs none, 5 days at 20° C. (FIG. 9)): negative effect | effect on the stability of nBTPT on urea granules during storage ([2]; [600 ppm nBTPT powder + 2600 ppm MgO] on urea moisturized from 0.20% to 0.60% H2O): positive effect | effect on the stability of nBTPT on urea granules during storage ([2]; [600 ppm nBTPT powder + 6000 ppm CaCO3] on urea moisturized from 0.20% to 0.60% H2O): positive effect | stability of nBTPT in urea ([3]; 500 ppm nBTPT powder in urea + 1% CaCO3, compared with urea + 500 ppm NaOH, closed plastic containers, 50° C., 109 days (FIG. 2)): even higher stability | stability of nBTPT in urea ([3]; 500 ppm nBTPT powder in urea + 1% CaCO3, compared with urea + 500 ppm NaOH, closed plastic containers, room temperature (20° C.), 1564 days (FIG. 3)): even higher stability | stability of nBTPT in urea ([3]; 500 ppm nBTPT powder in urea + 1% CaO, compared with urea + 500 ppm NaOH, closed plastic containers, 50° C., 109 days (FIG. 2)): even higher stability | stability of nBTPT in urea ([3]; 500 ppm nBTPT powder in urea + 1% CaO, compared with urea + 500 ppm NaOH, closed plastic containers, room temperature (20° C.), 1564 days (FIG. 3)): even higher stability | effect on the stability of nBTPT in urea granules during storage ([3]; 500 ppm nBTPT powder in urea + NaOH (200, 500, 1000 ppm) vs no NaOH, closed plastic containers, 40° C., 98 days, stability increases with NaOH dosage (FIG. 1)): positive effect | effect on the stability of nBTPT in urea granules during storage ([3]; 600 ppm nBTPT powder in urea + 1% CaCO3 vs no stabilizer, closed plastic containers, 70° C., 15 days (FIG. 5)): big positive effect | effect on the stability of nBTPT in urea granules during storage ([3]; 600 ppm nBTPT powder in urea + 1% CaO vs no stabilizer, closed plastic containers, 70° C., 15 days (FIG. 5)): big positive effect | stability of the urease inhibitor in the composition according to the invention ([3]; bagged conditions without the presence of a head space (exclusion of moisture and atmospheric gasses)): further increased | effect on the stability of nBTPT in urea granules during storage ([3]; nBTPT powder in urea + 0.1% B as borax vs no borax, open plastic containers, 20° C./80% R.H., 57 days (FIG. 4)): big positive effect
